Here are results for 32 molecules from patent US20250230138A1, “COMPOUNDS HAVING A T-STRUCTURE FORMED BY AT LEAST FOUR CYCLES FOR USE IN THE TREATMENT OF CANCER AND OTHER INDICATIONS” (TheRas, Inc., priority 2022, published 2025).

Assay [1] addresses Cys242 in human PIK3CA (157-299) (Homo sapiens (Human), UniProt P42336). Briefly: Covalent modification assay using MALDI-TOF MS. In kind it is biochemical. The conditions noted are these: 4 h reaction time point. The method in brief:
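PIK3CA (157-299) at 3.33 μM or 1 μM in 20 mM HEPES, 150 mM NaCl, 2 mM MgCl2, pH 7.3 was incubated with compound (from 10 mM DMSO stocks) in the dark at room temperature for 15 min, 30 min, 2 h or 4 h. Linear-mode MALDI-TOF peak heights gave percent modification.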

For another assay, the system named is pAKT in BT474 cells. Nature of the assay: Cell-based pAKT HTRF assay in BT474 cells. The conditions noted are these: BT474 cells, 4 hr incubation, read-out: pAKT inhibition IC50 in BT474 cells. The method in brief: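 BT474 cells in DMEM/10% FBS were treated the day after seeding with a 9-point, 3-fold compound series from 3 μM (0.25% DMSO) for 4 hr. Lysates were mixed with d2 and Eu cryptate anti-pAKT antibodies and incubated 4-24 h at room temperature. HTRF was read with excitation at 320 nm and emission at 615 nm.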

[2] abbreviates: 3.33 μM protein target, 1:7.5 protein to compound ratio (compounds 1-852).
[3] abbreviates: Homo sapiens, BT-474, Compounds 10-999.
The mark [4] stands for this setting: 1 μM protein target, 1:5 protein to compound ratio (compounds 853-1279).

Like-named read-outs stand apart in the source and are kept apart here.

Chain of Cys242 in human PIK3CA (157-299) (P42336 157-299): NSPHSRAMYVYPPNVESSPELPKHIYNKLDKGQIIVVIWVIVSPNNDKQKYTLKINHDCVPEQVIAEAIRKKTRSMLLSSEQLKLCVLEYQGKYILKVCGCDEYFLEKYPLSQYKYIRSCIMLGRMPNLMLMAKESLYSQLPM

`C=CC(=O)N1CCn2cc(-c3nc(-c4ccc5c(c4)CCNC5)c4ccsc4c3-c3ccc(F)cc3OCCOC)nc2C1` [Compound 101, 1-[2-[7-[4-fluoro-2-(2-methoxyethoxy)phenyl]-4-(1,2,3,4-tetrahydroisoquinolin-6-yl)thieno[3,2-c]pyridin-6-yl]-6,8-dihydro-5H-imidazo[1,2-a]pyrazin-7-yl]prop-2-en-1-one]: the “% of modification” value in assay [1] (setting [2]) is given as “A (percent of modification of PIK3CA protein ≥75%)”. In the assay with pAKT in BT474 cells (setting [3]), the IC50 is less than 100 nM.
With `C=CC(=O)N1C[C@H](C)n2nc(-c3nc(-c4cnn(C)c4)c4ccsc4c3-c3c(F)cc(F)cc3OCCOC)cc2[C@H]1C` [Compound 583], the “% of modification” value in assay [1] (setting [2]) was “A (percent of modification of PIK3CA protein ≥75%)”. Also, the half-inhibitory concentration (IC50) with pAKT in BT474 cells (Compounds 10-999) was less than 100 nM.
The like results for `C=CC(=O)N1Cc2cc(-c3nc(-c4ccc5c(cnn5C)c4)c4ccsc4c3-c3c(F)cc(F)cc3OCCOC)nn2[C@@H](C)C1` [Compound 739] were, in that order, “A (percent of modification of PIK3CA protein ≥75%)” and less than 100 nM.
With `C=CC(=O)N1CCn2nc(-c3nc(-c4ccc(CN(C)C)cc4)c4ccsc4c3-c3c(F)cc(F)cc3OCCOC)cc2C1C` (stereo not shown) [Compound 991], in assay [1] (setting [4]), the “% of modification” value is listed as “A (percent of modification of PIK3CA protein ≥75%)”. The IC50 with pAKT in BT474 cells (Compounds 10-999) is less than 100 nM.
As to `C=CC(=O)N1CCn2nc(-c3nc(-c4ccc5c(c4)CCN(C)C5)c4ccsc4c3-c3ccc(F)cc3OC(C)C)nc2C1` [Compound 271], the “% of modification” value in assay [1] (setting [2]) was “A (percent of modification of PIK3CA protein ≥75%)”. For the same molecule, the IC50 in the assay with pAKT in BT474 cells (Compounds 10-999) was less than 100 nM.
With `C=CC(=O)N1Cc2cc(-c3nc(-c4ccc5c(c4)CCN(C)C5)c4ccsc4c3-c3c(F)cc(F)cc3OC(C)C)nn2C[C@H]1C` [Compound 478, 1-((R)-2-((R)-7-(2,4-difluoro-6-isopropoxyphenyl)-4-(2-methyl-1,2,3,4-tetrahydroisoquinolin-6-yl)thieno[3,2-c]pyridin-6-yl)-6-methyl-6,7-dihydropyrazolo[1,5-a]pyrazin-5(4H)-yl)prop-2-en-1-one], the “% of modification” value in assay [1] (setting [2]) is on record as “D (percent of modification <25%)”. The IC50 in the assay on pAKT in BT474 cells (Compounds 10-999) lay within 100 to 1000 nM.
In the case of `C=CC(=O)N1CCn2nc(-c3nc(-c4ccc(C5(C(=O)NC)CC5)cc4)c4ccsc4c3-c3c(F)cc(F)cc3OC)cc2[C@H]1C` (single isomer, unassigned) [Compound 1151], in assay [1] (setting [4]), the “% of modification” value is given as “A (percent of modification of PIK3CA protein ≥75%)”. In addition, in the assay with pAKT in BT474 cells (Compounds 1000-1279), the IC50 lay in the range of 100 to 1000 nM.
Regarding `C=CC(=O)N1Cc2cc(-c3nc(N4CCC(N(C)C)CC4)c4ccsc4c3-c3c(F)cc(F)cc3OCCOC)nn2CC1C` (stereo not shown) [Compound 857], the “% of modification” value in assay [1] (setting [4]) is “A (percent of modification of PIK3CA protein ≥75%)”. Also, the half-maximal inhibitory concentration (IC50) in the assay with pAKT in BT474 cells (Compounds 10-999) is less than 100 nM.
For the molecule `C=CC(=O)N1CCn2nc(-c3nc(-c4cnc5c(c4)CN(C)CC5)c4ccsc4c3-c3ccc(F)cc3OC)cc2C1` [Compound 288], in assay [1] (setting [2]), the “% of modification” value was “A (percent of modification of PIK3CA protein ≥75%)”. In the assay on pAKT in BT474 cells (Compounds 10-999), the IC50 is less than 100 nM.
The like results for `C=CC(=O)N1CCn2nc(-c3nc(-c4ccc(=O)[nH]c4)c4ccsc4c3-c3ccc(F)cc3OC(C)C)cc2C1` [Compound 248] were, in that order, “A (percent of modification of PIK3CA protein ≥75%)” and less than 100 nM.
The like results for `C=CC(=O)N1Cc2cc(-c3nc(-c4cn(C)cn4)c4ccsc4c3-c3c(F)cc(F)cc3OCCOC)nn2[C@@H](C)C1` [Compound 509] were, in that order, “A (percent of modification of PIK3CA protein ≥75%)” and less than 100 nM.
Turning to `C=CC(=O)N1CCn2nc(-c3nc(-c4ccc5nncn5c4)c4ccsc4c3-c3c(F)cc(F)cc3OC[C@@H](C)O)cc2[C@H]1C` [Compound 897], the “% of modification” value in assay [1] (setting [4]) is “A (percent of modification of PIK3CA protein ≥75%)”. Also, in the assay on pAKT in BT474 cells (Compounds 10-999), the IC50 was less than 100 nM.
As to `C=CC(=O)N1CCn2nc(-c3nc(-c4cc5c(cc4OC)C(=O)NC5)c4ccsc4c3-c3c(F)cc(F)cc3OCCOC)cc2[C@H]1C` [Compound 1063], in assay [1] (setting [4]), the “% of modification” value is on record as “A (percent of modification of PIK3CA protein ≥75%)”. In the assay with pAKT in BT474 cells (Compounds 1000-1279), the IC50 was less than 100 nM.
The like results for `C=CC(=O)N1CCn2nc(-c3nc(-c4cnn(C5CN(C)C5)c(=O)c4)c4ccsc4c3-c3c(F)cc(F)cc3OCCOC)cc2C1C` (stereo not shown) [Compound 1035] were, in that order, “A (percent of modification of PIK3CA protein ≥75%)” and less than 100 nM.
Regarding `C=CC(=O)N1CCn2nc(-c3nc(-c4ccc(OCCN(C)C)cc4F)c4ccsc4c3-c3c(F)cc(F)cc3OCCOC)cc2C1C` (stereo not shown) [Compound 1091], in assay [1] (setting [4]), the “% of modification” value was “A (percent of modification of PIK3CA protein ≥75%)”. Further, in the assay on pAKT in BT474 cells (Compounds 1000-1279), the IC50 is less than 100 nM.
The like results for `C=CC(=O)N1CCn2nc(-c3nc(-c4ccc(C5CN(C)C5)cc4)c4ccsc4c3-c3c(F)cc(F)cc3OCCOC)cc2C1C` (stereo not shown) [Compound 1057] were, in that order, “A (percent of modification of PIK3CA protein ≥75%)” and less than 100 nM.
With `C=CC(=O)N1C[C@H](C)n2nc(-c3nc(-c4cnn(C)c4)c4ccsc4c3-c3c(F)cc(F)cc3OCCOC)cc2[C@@H]1C` [Compound 603], in assay [1] (setting [2]), the “% of modification” value is “D (percent of modification <25%)”. Besides, the IC50 in the assay with pAKT in BT474 cells (Compounds 10-999) lay within 1000 to 3000 nM.
The like results for `C=CC(=O)N1Cc2cc(-c3nc(-c4ccc5c(cnn5C)c4)c4ccsc4c3-c3c(F)cc(F)cc3OC[C@@H](C)O)nn2[C@@H](C)C1` [Compound 609] were, in that order, “A (percent of modification of PIK3CA protein ≥75%)” and less than 100 nM.
The like results for `C=CC(=O)N1CCc2c(nc(-c3nc(-c4ccc5c(c4)CCNC5)c4ccsc4c3-c3ccc(F)cc3OCCOC)n2C)C1` [Compound 99] were, in that order, “A (percent of modification of PIK3CA protein ≥75%)” and less than 100 nM.
The like results for `C=CC(=O)N1CC(n2cc(-c3nc(-c4ccc5c(c4)CCNC5)c4ccsc4c3-c3cnn(C)c3)cn2)C1` [Compound 90] were, in that order, “D (percent of modification <25%)” and greater than 3000 nM.
On to `C=CC(=O)N1CCn2nc(-c3nc(-c4ccc5c(c4)CCN(C(C)C)C5)c4ccsc4c3-c3ccc(F)cc3OCC3CCNC(=O)C3)cc2C1` (stereo not shown) [Compound 254], for which the “% of modification” value in assay [1] (setting [2]) is “A (percent of modification of PIK3CA protein ≥75%)”. Also, the IC50 with pAKT in BT474 cells (Compounds 10-999) is less than 100 nM.
For `C=CC(=O)N1CCn2nc(-c3nc(-c4ccc(C(=O)N(C)C)cc4)c4ccsc4c3-c3c(F)cc(F)cc3OCCOC)cc2C1C` (stereo not shown) [Compound 1100], in assay [1] (setting [4]), the “% of modification” value is “A (percent of modification of PIK3CA protein ≥75%)”. Besides, the IC50 in the assay with pAKT in BT474 cells (Compounds 1000-1279) is less than 100 nM.
As to `C=CC(=O)N1CCc2nc(-c3nc(-c4cnn(C)c4)c4ccsc4c3-c3ccc(F)cc3OCC3CCNC(=O)C3)sc2C1` (stereo not shown) [Compound 144, 4-[[5-fluoro-2-[4-(1-methylpyrazol-4-yl)-6-(5-prop-2-enoyl-6,7-dihydro-4H-thiazolo[5,4-c]pyridin-2-yl)thieno[3,2-c]pyridin-7-yl]phenoxy]methyl]piperidin-2-one], in assay [1] (setting [2]), the “% of modification” value is given as “A (percent of modification of PIK3CA protein ≥75%)”. The IC50 in the assay with pAKT in BT474 cells (setting [3]) is less than 100 nM.
In the case of `C=CC(=O)N1CCc2ncc(-c3nc(-c4cnc5c(c4)CN(C)CC5)c4ccsc4c3-c3c(F)cc(F)cc3OC(C)C)cc2C1` [Compound 327], the “% of modification” value in assay [1] (setting [2]) is “A (percent of modification of PIK3CA protein ≥75%)”. Further, the IC50 with pAKT in BT474 cells (Compounds 10-999) was less than 100 nM.
The like results for `C=CC(=O)N1CCc2nc(-c3nc(-c4ccc5c(c4)CCN(C)C5)c4ccsc4c3-c3c(F)cc(F)cc3OCC(F)F)sc2C1` [Compound 470] were, in that order, “A (percent of modification of PIK3CA protein ≥75%)” and 100 to 1000 nM.
For the molecule `C=CC(=O)N1CCn2nc(-c3nc(-c4ccc5c(c4)[C@@H](O)CC5)c4ccsc4c3-c3ccc(F)cc3OCCOC)cc2C1` [Compound 262], in assay [1] (setting [2]), the “% of modification” value was “A (percent of modification of PIK3CA protein ≥75%)”. Moreover, the IC50 in the assay with pAKT in BT474 cells (Compounds 10-999) was less than 100 nM.
On to `C=CC(=O)N1CCn2nc(-c3nc(-c4ccc5ncn(C)c(=O)c5c4)c4ccsc4c3-c3c(F)cc(F)cc3OCCO)cc2C1C` (stereo not shown) [Compound 900], for which, in assay [1] (setting [4]), the “% of modification” value is recorded as “A (percent of modification of PIK3CA protein ≥75%)”. Besides, the IC50 in the assay on pAKT in BT474 cells (Compounds 10-999) is less than 100 nM.
As to `C=CC(=O)N1CC(n2cc(-c3nc(N4CCn5cnnc5C4)c4ccsc4c3-c3ccc(F)cc3OCCOC)cn2)C1` [Compound 228], in assay [1] (setting [2]), the “% of modification” value is “A (percent of modification of PIK3CA protein ≥75%)”. Moreover, the concentration for half-maximal inhibition (IC50) with pAKT in BT474 cells (Compounds 10-999) lay in the range of 100 to 1000 nM.
The like results for `C=CC(=O)N1CCn2nc(-c3nc(-c4ccc5c(c4)CCNC5=O)c4ccsc4c3-c3ccc(F)cc3OCCOC)nc2C1` [Compound 184] were, in that order, “A (percent of modification of PIK3CA protein ≥75%)” and less than 100 nM.
For the molecule `C=CC(=O)N1CCn2nc(-c3nc(-c4ccc5ncn(C)c5c4)c4ccsc4c3-c3c(F)cc(F)cc3OCCO)cc2[C@H]1C` [Compound 653], in assay [1] (setting [2]), the “% of modification” value is “B (50%<percent of modification <75%)”. Also, in the assay on pAKT in BT474 cells (Compounds 10-999), the IC50 is less than 100 nM.
The like results for `C=CC(=O)N1CCc2nc(-c3nc(-c4ccc5c(c4)CCNC5)c4ccoc4c3-c3ccc(F)cc3OCCOC)sc2C1` [Compound 417] were, in that order, “A (percent of modification of PIK3CA protein ≥75%)” and less than 100 nM.
In the case of `C=CC(=O)N1Cc2cc(-c3nc(-c4ccc5c(c4)CCN(C)C5)c4ccsc4c3-c3c(F)cc(F)cc3OC[C@@H](C)O)nn2C[C@H]1C` [Compound 605], the “% of modification” value in assay [1] (setting [2]) is on record as “A (percent of modification of PIK3CA protein ≥75%)”. The IC50 in the assay with pAKT in BT474 cells (Compounds 10-999) was less than 100 nM.
